Experimental findings from patent US9868775B2, “Sfrp5-derived peptide fragment and cosmetic composition for skin whitening containing same” (KNU-INDUSTRY COOPERATION FOUNDATION, priority 2014, dated 2018) are described below.

Assay [1] has as its system tyrosinase. The assay can be described thus: inhibitory activity against tyrosinase activity in B16F10 (L-DOPA, 490 nm). The class given is cell-based, mouse. As to conditions: B16F10, α-MSH, predetermined concentrations, 72 hours, 490 nm (FIG. 4). As to the method: B16F10 cells (Korean Cell Line Bank, Seoul) were added to each well of a 24-well plate (5×10^4 cells per well), along with 1 ml of DMEM, and then stabilized through incubating in a 5% CO2 incubator at 37° C. for 24 hours. α-MSH (Sigma Co, MO, USA), a melanocyte-stimulating hormone, was treated to each well, along with the peptide of SEQ ID NO: 8 in predetermined concentrations. After incubating the cells for 72 hours, the proteins were extracted therefrom. The obtained extracts were added to each well of a 96-well plate ([…] per each well) and then treated with a L-dihydroxyphenylalanine (L-DOPA) solution (100 μL) at 37° C. for 2 hours. The groups in which α-MSH (100 nM) and arbutin (0.01%) were respectively treated were used as positive controls. After 2 hours, the pictures thereof were taken and the tyrosinase activities thereof were measured at 490 nm with a microreader.

Assay [2] deals with MITF. The assay can be described thus: RT-PCR, MITF gene expression in human epidermal melanocytes. The class given is cell-based. As to conditions: α-MSH, predetermined concentrations, 72 hours, RT-PCR (FIG. 6). How it is done: (§1) Human epidermal melanocytes were added to each well of a 6-well plate (1.5×10^5 cells per well), along with 2 ml of DMEM, and then stabilized through incubating in a 5% CO2 incubator at 37° C. for 24 hours. α-MSH (Sigma Co, MO, USA), a melanocyte-stimulating hormone, was treated to each well, along with the peptide of SEQ ID NO: 8 in predetermined concentrations. After incubating the cells for 72 hours, the total RNAs were extracted therefrom and then cDNAs were synthesized. The cDNA syntheses were carried out with a Reverse Transcription Master premix (Elpisbiotech, Daejeon, Korea). Using each synthesized cDNA as a template, reverse transcription polymerase chain reactions (RT-PCR) were carried out with a ROTOR Q GENE apparatus. Each RT-PCR solution was prepared by mixing 1 μl of cDNA, 10 μl of TOPreal qRT-PCR2X premix (Enzynomics, Daejeon, Korea), 2 μl of primer set (10 pmol) and 7 μl of D.W. The RT-PCR was carried out as follows: initially at 94° C. for 10 minutes; and then at 94° C. for 10 seconds, at 58° C. for 30 seconds, and at 72° C. for 1 minute; 40 cycles.

Assay [3] relates to tyrosinase (TYR). The assay can be described thus: RT-PCR, tyrosinase gene expression in human epidermal melanocytes. The class given is cell-based. To be noted: α-MSH, predetermined concentrations, 72 hours, RT-PCR (FIG. 6). As to the method: as §1
Assay [4] deals with TRP-1. The assay can be described thus: RT-PCR, TRP-1 gene expression in human epidermal melanocytes. To be noted: α-MSH, predetermined concentrations, 72 hours, RT-PCR (FIG. 6). The class given is cell-based. As to the method: as §1
The subject of assay [5] is TRP-2. The assay can be described thus: RT-PCR, TRP-2 gene expression in human epidermal melanocytes. To be noted: α-MSH, predetermined concentrations, 72 hours, RT-PCR (FIG. 6). The class given is cell-based. As to the method: as §1
Assay [6] deals with MITF and β-catenin. The assay can be described thus: in situ proximity ligation assay, binding between MITF and β-catenin. The class given is cell-based, mouse. As to conditions: B16F1 cells, similar methods to CREB test (FIG. 1c). How it is done: The effects of the peptide fragments of the present invention on the β-catenin activation, which plays a critical role in Wnt signaling pathways, were evaluated using an in situ proximity ligation assay. The evaluation was performed with a commercially available kit, i.e., DUOLINK II in situ kit from Olink Bioscience, Sweden.
The mouse melanoma cell line B16F1 cells (Korean Cell Line Bank, Seoul) were added to 1 ml of DMEM in each well of a 24-well plate (5×10^4 cells per well), each well having a 12 mm glass in the bottom thereof. The cells were then stabilized through incubating in a 5% CO2 incubator at 37° C. for 24 hours. α-MSH (Sigma Co, MO, USA), a melanocyte-stimulating hormone (0.1 μM), and the peptide fragments of the present invention (1 μM) were treated to each well. The cells were cultured in a 5% CO2 incubator at 37° C. for 24 hours and then fixed with 4% paraformaldehyde. After a drop of the blocking solution was added to the cells on the 12 mm glass, the cells were then incubated at 37° C. for 30 minutes. Activation of the Wnt receptor increases the interaction between CREB (cyclic AMP response element-binding) and β-catenin. For determining the interaction levels thereof, the cells were treated with an anti-CREB polyclonal antibody (Santa Cruz Co., CA, USA) and an anti-β-catenin mouse monoclonal antibody (Santa Cruz Co., CA, USA) at 37° C. After incubating 30 minutes therefrom, the cells were treated with the PLA probe solution at 37° C. for 1 hour, with the ligation solution for 30 minutes, and then with the amplification solution for 100 minutes. After washing the cells with the washing buffer, the number of the red spots was measured with a confocal microscopy. In FIGS. 1a and 1b, the control means the group of no treatment and the α-MSH means the group treated with only α-MSH (i.e., without peptide treatment).
And also, according to similar methods in the above, we investigated the inhibitory effects of the peptides of SEQ ID NOs: 5, 8, and 9 on the binding between MITF and β-catenin.

Assay [7] has as its system β-catenin. The assay can be described thus: Western blotting, β-catenin expression in human epidermal melanocytes. The class given is cell-based. As to conditions: α-MSH, predetermined concentrations, 48 hours (FIG. 2). As to the method: (§2) The effects of the peptide fragment of the present invention on the β-catenin expression and the GSK-3 phosphorylation, which plays a critical role in the activation of Wnt signaling pathways, were evaluated using a Western blotting assay. Human epidermal melanocytes (Cascade Biologics, #C-0245C; Portland, Oreg., USA) were added to 2 ml of DMEM in each well of a 6-well microplate (1.5×10^5 cells per well). The cells were then stabilized through incubating in a 5% CO2 incubator at 37° C. for 24 hours. α-MSH (Sigma Co, MO, USA), a melanocyte-stimulating hormone, was treated to each well, along with the peptide fragment of the present invention (the peptide of SEQ ID NO: 8) in predetermined concentrations. After the cells were cultured for 48 hours, the proteins were extracted therefrom. The obtained extracts were subject to the Western blotting assay using an anti-β-catenin antibody (Santa Cruz Co., CA, USA) and an anti-pGSK-3 antibody (Cell SignalingTechnology, MA, USA), so as to measure the levels of β-catenin expression and GSK-3 phosphorylation changes. […] Therefore, it can be seen that the peptide fragments of the present invention can inhibit the Wnt signaling pathways in melanocytes.
A general note: Immunoblotting shows a protein as a band on a membrane.

Assay [8] deals with GSK-3. The assay can be described thus: Western blotting, GSK-3 phosphorylation in human epidermal melanocytes. In kind it is cell-based. As to conditions: α-MSH, predetermined concentrations, 48 hours (FIG. 2). As to the method:
as §2

In assay [9] the test system is mouse melanoma cell line B16F10. The assay can be described thus: inhibitory activity against melanin formation in B16F10. In kind it is cell-based. To be noted: B16F10, α-MSH 100 nM, peptide 0.1, 1, and 10 μM, 24 hours (FIG. 3). How it is done:
B16F10 cells (Korean Cell Line Bank, Seoul) were added to each well of a 6-well microplate (1.5×10^5 cells per well), along with 2 ml of DMEM, and then incubated in a 5% CO2 incubator at 37° C. for 24 hours. α-MSH (Sigma Co, MO, USA) (100 nM) was treated to each well, along with the peptide of SEQ ID NO: 8 in the final concentrations of 0.1, 1, and 10 μM. The groups in which α-MSH (100 nM) and arbutin (0.01%) were respectively treated were used as positive controls. After additionally incubating the cells for 24 hours, the pictures of each culture ware taken so as to compare the respective levels of melanin formation.

The test system of assay [10] is MITF. The assay can be described thus: Western blotting, MITF protein expression in human epidermal melanocytes. In kind it is cell-based. As to conditions: α-MSH, predetermined concentrations, 24 hours (FIG. 5). As to the method: (§3) We evaluated the effects of the peptide fragment of the present invention on the protein expressions of the melanin-producing enzymes in human epidermal melanocytes, using a Western blotting assay. Human epidermal melanocytes (Cascade Biologics, #C-0245C; Portland, Oreg., USA) were added to each well of a 6-well microplate (1.5×10^5 cells per well), along with 2 ml of DMEM, and then stabilized through incubating in a 5% CO2 incubator at 37° C. for 24 hours. α-MSH (Sigma Co, MO, USA), a melanocyte-stimulating hormone, was treated to each well, along with the peptide fragment of the present invention (the peptide of SEQ ID NO: 8) in predetermined concentrations. After incubating the cells for 24 hours, the proteins were extracted therefrom. The obtained extracts were subject to the Western blotting assay using an anti-MITF antibody (ABcam, Ma, USA), an anti-tyrosinase antibody (Santa Cruz Co., CA, USA), an anti-TRP-1 antibody (Santa Cruz Co., CA, USA), and an anti-TRP-2 antibody (Santa Cruz Co., CA, USA), so as to measure the expression levels of MITF, tyrosinase, TRP-1, and TRP-2.

Assay [11] has as its system tyrosinase. The assay can be described thus: Western blotting, tyrosinase protein expression in human epidermal melanocytes. The class given is cell-based. To be noted: α-MSH, predetermined concentrations, 24 hours (FIG. 5). As to the method: as §3
The test system of assay [12] is TRP-1. The assay can be described thus: Western blotting, TRP-1 protein expression in human epidermal melanocytes. The class given is cell-based. To be noted: α-MSH, predetermined concentrations, 24 hours (FIG. 5). As to the method: as §3
The subject of assay [13] is TRP-2. The assay can be described thus: Western blotting, TRP-2 protein expression in human epidermal melanocytes. The class given is cell-based. As to conditions: α-MSH, predetermined concentrations, 24 hours (FIG. 5). As to the method: as §3

Consider “α-MSH: a melanocyte-stimulating hormone (Sigma Co, MO, USA), used as stimulant [reference compound]”, for which the tyrosinase activity entry in assay [1] is recorded as “increased”. For the same substance, in [2], the “gene expression of MITF” value is listed as “increased”. Besides, in assay [3], the “gene expression of tyrosinase (TYR)” value was “increased”. In addition, in [4], the “gene expression of TRP-1” value is listed as “increased”. In addition, the “gene expression of TRP-2” value in assay [5] is “increased”.
Take “Lys-Ile-Gly (KIG; Petide fragment) [SEQ ID NO: 5, Sfrp5-derived peptide fragment]”: the “bindings between MITF and β-catenin” value in assay [6] is reported as “significantly decreased”.
On the same count and under the same terms, as for “Cys-Glu-Ala-Val (CEAV; Peptide fragment) [SEQ ID NO: 9, Sfrp5-derived peptide fragment]”, the entry is “significantly decreased”.
Turning to “Ala-Gln-Lys (AQK; Petide fragment) [SEQ ID NO: 8, Sfrp5-derived peptide fragment]”, the “bindings between MITF and β-catenin” value in assay [6] is reported as “significantly decreased”. Further, the “level of β-catenin expression” value in [7] is reported as “decreased”. In [8], the “level of GSK-3 phosphorylation” value was “decreased”. For the same substance, the “melanin formation (brown colors of cell culture)” value in assay [9] was “decreased according to the concentrations of the peptide”. For the same substance, in assay [1], the tyrosinase activity result is “decreased in concentration-dependent manner”. The “expression level of MITF (protein)” value in [10] is on record as “decreased”. For the same substance, the “expression level of tyrosinase (protein)” value in assay [11] is on record as “decreased”. Moreover, in assay [12], the “expression level of TRP-1 (protein)” value is recorded as “decreased”. Also, the “expression level of TRP-2 (protein)” value in assay [13] is “decreased”. In addition, the “gene expression of MITF” value in assay [2] is given as “decreased in concentration-dependent manner”. The “gene expression of tyrosinase (TYR)” value in assay [3] is “decreased in concentration-dependent manner”. The “gene expression of TRP-1” value in assay [4] is reported as “decreased in concentration-dependent manner”. Also, the “gene expression of TRP-2” value in assay [5] was “decreased in concentration-dependent manner”.
